# In US20140005163A1 (NOVARTIS AG, priority 2010, published 2014):
# Legend:
# [1] = biological target: T1, PI3K alpha (Homo sapiens, UniProt P42336); assay: PI3K alpha kinase assay (Kinase-Glo luminescence); assay type: biochemical
# T1 construct: p85(iSH2) fusion partner (see partner chain) (N); His tag (C); made in house; host or cells: baculovirus; Tn5 (Trichoplusia ni) or TiniPro insect cells
# Procedure: (§1) In a more preferred assay, the kinase reaction is performed in a final volume of 10 μL per well of a low volume non binding CORNING, 384 well black plate (Cat. No. #3676). The final concentrations of ATP and phosphatidyl inositol (PI) in the assay are 1 μM and 10 μg/mL respectively. The reaction is started by the addition of ATP.
# (§2) The components of the assay are added per well as follows:
# (§3) […] in 90% DMSO per well, in columns 1-20, 8 concentrations (1/3 and 1/3.33 serial dilution step) in single. • Low control: […] of 90% DMSO in half the wells of columns 23-24 (0.45% in final). • High control: […] of reference compound (e.g. compound of Example 7 in WO 2006/122806) in the other half of columns 23-24 (2.5 μM in final). • Standard: […] of reference compound as just mentioned diluted as the test compounds in columns 21-22 • 20 mL ‘buffer’ are prepared per assay: • 200 μL of 1M TRIS HCl pH7.5 (10 mM in final) • 60 μL of 1M MgCl2 (3 mM in final) • 500 μL of 2M NaCl (50 mM in final) • 100 μL of 10% CHAPS (0.05% in final) • 200 μL of 100 mM DTT (1 mM in final) • 18.94 mL of nanopure water • 10 mL ‘PI’ are prepared per assay: • 200 μL of 1 mg/ml L-alpha-Phosphatidylinositol (Liver Bovine, Avanti Polar Lipids Cat. No. 840042C MW=909.12) prepared in 3% OctylGlucoside (10 μg/ml in final) • 9.8 mL of ‘buffer’ • 10 mL ‘ATP’ are prepared per assay: • 6.7 μL of 3 mM stock of ATP giving a final concentration of 1 μM per well • 10 mL of ‘buffer’ • 2.5 mL of each PI3K construct are prepared per assay in ‘PI’ with the following final concentration: • 10 nM PI3K alfa EMV B1075 • 25 nM beta EMV BV949 • 10 nM delta EMV BV1060 • 150 nM gamma EMV BV950 • 5 μL of ‘PI/PI3K’ are added per well. • 5 μl ‘ATP’ are added per well to start the reaction. • The plates are then incubated at room temperature for 60 minutes (alfa, beta, delta) or 120 minutes (gamma). • The reaction is terminated by the addition of 10 μL Kinase-Glo (Promega Cat. No. #6714). • The assay plates are read after 10 minutes in Synergy 2 reader (BioTek, Vermont USA) with an integration time of 100 milliseconds and sensitivity set to 191. • Output: The High control is around 60'000 counts and the Low control is 30'000 or lower • This luminescence assay gives a useful Z′ ratio between 0.4 and 0.7
# Two different constructs, BV 1052 and BV 1075, are used to generate the PI3 Kinase a proteins for compound screening.
# (§4) IC50 is determined by a four parameter curve fitting routine that comes along with “excel fit”. […] Alternatively, IC50 values are calculated using idbsXLfit model 204, which is a 4 parameter logistic model.
# [2] = biological target: T2, PI3K beta (Homo sapiens, UniProt P42338); assay: PI3K beta kinase assay (Kinase-Glo luminescence); assay type: biochemical
# T2 construct: for the full-length p110-b subunit are generated and fused by overlapping PCR; p85(iSH2) fusion partner (see partner chain) (N); His tag (C); made in house; host or cells: baculovirus; Tn5 (Trichoplusia ni) or TiniPro insect cells
# Procedure: as §1, §2, §3
# PI3Kβ BV-949 p85(iSH2)-Gly Linker-p110b(Full-Length)-C-Term his Tag
# as §4
# [3] = biological target: T3, PI3K delta (Homo sapiens, UniProt O00329); assay: PI3K delta kinase assay (Kinase-Glo luminescence); assay type: biochemical
# T3 construct: for the full-length p110-d subunit are generated and fused by overlapping PCR; p85(iSH2) fusion partner (see partner chain) (N); His tag (C); made in house; host or cells: baculovirus; Tn5 (Trichoplusia ni) or TiniPro insect cells
# Procedure: as §1, §2, §3
# […] BV-1060 p85(iSH2)-Gly Linker-p110d(Full-Length)-C-Term his Tag
# as §4
# [4] = biological target: T4, mTOR (Homo sapiens, UniProt P42345); assay: Biochemical assay for m-TOR by TR-FRET; details: 8 μM ATP, 400 nM GFP-4EBP1, 0.5 nM mTOR
# T4 construct: purchased Invitrogen Corporation (Carlsbad/CA, USA) PV4753
# Procedure: Biochemical Assay for m-TOR by TR-FRET.
# Assay components are purchased from Invitrogen Corporation (Carlsbad/CA, USA): GFP-4EBP1 (Cat. No. PV4759), Tb3+-α-p4EBP1 [pThr46] Antibody (Cat. No. PV4757), proprietary TR-FRET dilution buffer (Cat. No. PV3574), mTOR protein (Cat. No. PV4753).
# Then 5 μL of ATP (8 μM final concentration) and GFP-4EBP1 (400 nM final concentration) with 5 μL mTOR proteins (0.5 nM final concentration) are incubated at rt. The standard reaction buffer for the TR-FRET mTOR assay contained 50 mM HEPES pH 7.5, 10 mM MnCl2, 50 mM NaCl, 1 mM EGTA, 1 mM DTT. Reactions were stopped with 10 μL of a mixture of EDTA containing the Tb3+-α-p4EBP1-[pT46] detection Ab (0.5 nM) in TR-FRET dilution buffer (proprietary to IVG). Plates are read 15 mins later in a Synergy2 reader using an integration time of 0.2 seconds and a delay of 0.1 seconds. […] A standard compound is used as a reference compound and included in all assay plates in the form of 16 dilution points in duplicate.
# [5] = test system: PKB Ser473 phosphorylation in Rat1-myr-HA-p110 beta cells; assay: Reverse protein array assay, PKB Ser473 phosphorylation in Rat1-myr-p110 beta cells; assay type: cell-based; details: 0.5 h, pAkt Ser473, 30 minutes incubation, read-out: p-PKB IC50
# Procedure: (§5) The Rat1-myr-HA-p110 alpha, beta and delta cells were trypsinized and counted with a CASY TT cell counter (Schärfe System GmbH, Reutlingen Germany). […] The plates were incubated at 37° C. and 5% CO2 under humidified condition for at least 20 h. Compound of formula I working solutions were prepared freshly as serial 8 step dilutions (vol/vol) in DMSO on the day of the experiment. […] The final DMSO concentration was kept constant at 0.2%. cell culture medium containing 0.2% DMSO was used as vehicle treatment control. Post incubation, the cells were treated with the serial compound dilution. 50 μl of the compound medium mixture was added to the wells containing cells and 150 μl DMEM medium and incubated for 30 minutes (37° C., 5% CO2). After 30 minutes of incubation, the medium mixture was quickly removed by aspiration. […] 50 μl of the described lysis buffer mix was added to each well, followed by 10 minutes of incubation on ice.
# (§6) The samples were spotted onto ZeptoMARKt PWG protein microarray chips (Zeptosens, Witterswil, Switzerland) with the piezoelectric microdispense-based, non-contact Nano-Plotter 2.1 (GeSiM, Grosserkmannsdorf, Germany). Each sample was spotted at 4 different sample concentrations (d1=100%, d2=75%, d3=50%, d4=25%) by diluting the cell lysate with the corresponding volume of lysis buffer mix. After spotting the ZeptoMARK® protein microarrays, the chips are incubated for 1 hour at 37° C. […] After 20 minutes of blocking the chips are extensively rinsed with deionized water (Milli-Q quality, 18MΩ×cm) and dried in a nitrogen air flow.
# (§7) After incubation, the arrays were washed twice with 200 μl CAB1 buffer. […] The fluorescence signal was assessed with exposure times of 1, 3, 5 and 10 seconds, depending on the intensity of the signal. The resulting four images taken per array are stored as 16-bit TIF files.
# (§8) The fluorescence images for each array were analyzed with the ZeptoVIEW Pro 2.0 software (Zeptosens, Witterswil, Switzerland) and the relative fluorescence intensity for each signal was calculated.
# [6] = test system: PKB Ser473 phosphorylation in Rat1-myr-HA-p110 delta cells; assay: Reverse protein array assay, PKB Ser473 phosphorylation in Rat1-myr-p110 delta cells; assay type: cell-based; details: read-out: p-PKB IC50
# Procedure: as §5, §6, §7, §8
# [7] = test system: PKB Ser473 phosphorylation in Rat1-myr-HA-p110 alpha cells; assay: Reverse protein array assay, PKB Ser473 phosphorylation in Rat1-myr-p110 alpha cells; assay type: cell-based; details: 0.5 h, pAkt Ser473, 30 minutes compound incubation, read-out: p-PKB IC50
# Procedure: as §5, §6, §7, §8
# [8] = test system: S6 Ribosomal Protein phosphorylation Ser235/236 in TSC1 null mouse embryo fibroblast (MEF) cells; assay: Reverse protein array assay, S6 Ribosomal Protein phosphorylation Ser235/236 in TSC1 null MEF cells; assay type: cell-based; details: 1 h, pS6 ribosomal protein Ser235/236, 60 minutes incubation, read-out: p-S6 IC50
# Procedure: as §5, with “TSC1−/−” for “Rat1-myr-HA-p110 alpha, beta and delta”, “(Schirfe” for “(Schärfe”, “Working” for “Compound of formula I working”, “0.02%.” for “0.2%.”, “0.02%” for “0.2%”, “60” for “30”
# The spotting of the chips follows the previous described method.
# T1 sequence (P42336 with tags, fused parts or gaps limits assumed): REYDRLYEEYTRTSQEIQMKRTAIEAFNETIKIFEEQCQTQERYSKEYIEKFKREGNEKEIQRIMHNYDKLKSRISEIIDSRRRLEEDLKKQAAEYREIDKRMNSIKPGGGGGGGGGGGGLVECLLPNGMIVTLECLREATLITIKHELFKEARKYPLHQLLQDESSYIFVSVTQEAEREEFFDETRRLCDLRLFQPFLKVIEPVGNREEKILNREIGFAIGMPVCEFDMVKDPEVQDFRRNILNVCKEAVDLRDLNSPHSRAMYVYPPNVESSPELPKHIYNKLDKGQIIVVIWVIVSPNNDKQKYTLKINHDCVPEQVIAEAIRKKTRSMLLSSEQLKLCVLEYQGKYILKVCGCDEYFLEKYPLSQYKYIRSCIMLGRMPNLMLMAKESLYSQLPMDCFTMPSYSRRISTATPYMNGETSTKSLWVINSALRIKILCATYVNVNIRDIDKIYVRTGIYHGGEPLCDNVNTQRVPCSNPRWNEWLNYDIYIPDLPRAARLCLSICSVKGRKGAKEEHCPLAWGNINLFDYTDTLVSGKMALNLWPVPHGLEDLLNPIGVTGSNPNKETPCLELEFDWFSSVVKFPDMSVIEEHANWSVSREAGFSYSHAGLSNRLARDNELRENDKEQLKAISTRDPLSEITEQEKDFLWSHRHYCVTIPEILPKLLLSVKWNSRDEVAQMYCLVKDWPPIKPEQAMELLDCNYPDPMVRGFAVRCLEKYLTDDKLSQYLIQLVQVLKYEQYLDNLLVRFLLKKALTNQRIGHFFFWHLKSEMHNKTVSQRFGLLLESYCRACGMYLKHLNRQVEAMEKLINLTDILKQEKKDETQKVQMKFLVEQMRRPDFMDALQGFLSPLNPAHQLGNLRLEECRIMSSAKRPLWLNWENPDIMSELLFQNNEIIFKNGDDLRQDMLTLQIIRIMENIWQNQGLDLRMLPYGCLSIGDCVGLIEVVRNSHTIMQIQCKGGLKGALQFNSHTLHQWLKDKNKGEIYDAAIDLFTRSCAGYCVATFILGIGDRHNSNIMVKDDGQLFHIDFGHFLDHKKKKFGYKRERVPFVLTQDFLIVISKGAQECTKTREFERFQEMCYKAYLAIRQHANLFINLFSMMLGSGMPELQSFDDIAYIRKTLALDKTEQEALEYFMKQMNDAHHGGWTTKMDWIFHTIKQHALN
# T4 sequence (P42345 1360-2549 limits assumed): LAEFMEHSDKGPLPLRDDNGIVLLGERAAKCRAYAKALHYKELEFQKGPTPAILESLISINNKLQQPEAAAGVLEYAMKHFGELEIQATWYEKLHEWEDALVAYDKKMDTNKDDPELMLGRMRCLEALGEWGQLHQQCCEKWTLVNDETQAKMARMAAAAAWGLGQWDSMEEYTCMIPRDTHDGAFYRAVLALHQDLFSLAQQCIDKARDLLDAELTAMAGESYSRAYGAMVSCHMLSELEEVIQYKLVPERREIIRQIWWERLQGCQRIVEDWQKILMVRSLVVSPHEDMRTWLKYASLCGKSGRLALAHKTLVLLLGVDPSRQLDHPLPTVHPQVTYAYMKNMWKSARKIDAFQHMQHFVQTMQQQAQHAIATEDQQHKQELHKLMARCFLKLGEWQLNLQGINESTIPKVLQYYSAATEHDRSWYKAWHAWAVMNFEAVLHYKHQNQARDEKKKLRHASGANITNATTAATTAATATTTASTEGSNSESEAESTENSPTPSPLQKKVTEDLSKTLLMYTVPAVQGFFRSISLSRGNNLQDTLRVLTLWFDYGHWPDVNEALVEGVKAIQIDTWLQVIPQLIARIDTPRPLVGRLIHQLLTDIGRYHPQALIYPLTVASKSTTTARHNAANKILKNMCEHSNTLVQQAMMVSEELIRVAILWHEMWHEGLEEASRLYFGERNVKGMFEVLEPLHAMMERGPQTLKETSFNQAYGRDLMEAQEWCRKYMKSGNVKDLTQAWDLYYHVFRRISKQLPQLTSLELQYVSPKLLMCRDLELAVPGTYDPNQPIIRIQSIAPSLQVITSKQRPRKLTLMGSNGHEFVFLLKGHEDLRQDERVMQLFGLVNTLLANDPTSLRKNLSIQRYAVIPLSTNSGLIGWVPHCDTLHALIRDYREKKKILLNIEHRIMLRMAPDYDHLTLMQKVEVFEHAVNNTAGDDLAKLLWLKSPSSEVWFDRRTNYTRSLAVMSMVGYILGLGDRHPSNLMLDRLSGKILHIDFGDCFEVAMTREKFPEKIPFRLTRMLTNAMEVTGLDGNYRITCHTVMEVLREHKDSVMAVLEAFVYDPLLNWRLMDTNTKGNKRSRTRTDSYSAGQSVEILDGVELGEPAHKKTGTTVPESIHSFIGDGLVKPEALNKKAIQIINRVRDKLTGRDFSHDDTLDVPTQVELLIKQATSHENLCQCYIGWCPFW
# T3 sequence (O00329 with tags, fused parts or gaps limits assumed): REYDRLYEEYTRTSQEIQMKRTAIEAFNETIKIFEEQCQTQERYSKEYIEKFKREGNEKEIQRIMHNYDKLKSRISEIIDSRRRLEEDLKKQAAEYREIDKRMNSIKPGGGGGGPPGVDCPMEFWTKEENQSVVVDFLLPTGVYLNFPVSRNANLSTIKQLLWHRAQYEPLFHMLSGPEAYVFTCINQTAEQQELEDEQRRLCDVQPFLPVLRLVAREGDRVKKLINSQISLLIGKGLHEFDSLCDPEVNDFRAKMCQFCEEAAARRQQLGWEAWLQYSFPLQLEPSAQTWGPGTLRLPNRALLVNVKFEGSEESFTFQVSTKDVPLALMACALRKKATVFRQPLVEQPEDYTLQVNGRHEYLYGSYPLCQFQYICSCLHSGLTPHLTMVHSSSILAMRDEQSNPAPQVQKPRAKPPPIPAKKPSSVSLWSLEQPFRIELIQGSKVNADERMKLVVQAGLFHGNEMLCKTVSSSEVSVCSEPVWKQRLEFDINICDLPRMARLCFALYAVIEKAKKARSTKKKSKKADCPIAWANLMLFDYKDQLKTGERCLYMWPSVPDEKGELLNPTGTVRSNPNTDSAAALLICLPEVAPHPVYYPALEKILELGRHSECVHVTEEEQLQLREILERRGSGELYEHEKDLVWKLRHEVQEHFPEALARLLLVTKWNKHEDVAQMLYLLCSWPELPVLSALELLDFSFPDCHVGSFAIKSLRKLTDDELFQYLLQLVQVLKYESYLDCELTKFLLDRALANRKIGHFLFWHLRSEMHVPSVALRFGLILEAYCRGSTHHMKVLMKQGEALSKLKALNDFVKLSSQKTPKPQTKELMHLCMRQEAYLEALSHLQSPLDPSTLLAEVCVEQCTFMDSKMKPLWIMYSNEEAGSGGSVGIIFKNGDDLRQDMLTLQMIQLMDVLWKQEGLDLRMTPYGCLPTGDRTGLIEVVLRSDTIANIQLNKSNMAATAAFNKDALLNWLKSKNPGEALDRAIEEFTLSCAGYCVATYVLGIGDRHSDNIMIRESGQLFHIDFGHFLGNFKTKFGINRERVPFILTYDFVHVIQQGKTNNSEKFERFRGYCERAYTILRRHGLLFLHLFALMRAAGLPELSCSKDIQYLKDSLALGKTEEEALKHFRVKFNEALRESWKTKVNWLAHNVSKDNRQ
# T2 sequence (P42338 with tags, fused parts or gaps limits assumed): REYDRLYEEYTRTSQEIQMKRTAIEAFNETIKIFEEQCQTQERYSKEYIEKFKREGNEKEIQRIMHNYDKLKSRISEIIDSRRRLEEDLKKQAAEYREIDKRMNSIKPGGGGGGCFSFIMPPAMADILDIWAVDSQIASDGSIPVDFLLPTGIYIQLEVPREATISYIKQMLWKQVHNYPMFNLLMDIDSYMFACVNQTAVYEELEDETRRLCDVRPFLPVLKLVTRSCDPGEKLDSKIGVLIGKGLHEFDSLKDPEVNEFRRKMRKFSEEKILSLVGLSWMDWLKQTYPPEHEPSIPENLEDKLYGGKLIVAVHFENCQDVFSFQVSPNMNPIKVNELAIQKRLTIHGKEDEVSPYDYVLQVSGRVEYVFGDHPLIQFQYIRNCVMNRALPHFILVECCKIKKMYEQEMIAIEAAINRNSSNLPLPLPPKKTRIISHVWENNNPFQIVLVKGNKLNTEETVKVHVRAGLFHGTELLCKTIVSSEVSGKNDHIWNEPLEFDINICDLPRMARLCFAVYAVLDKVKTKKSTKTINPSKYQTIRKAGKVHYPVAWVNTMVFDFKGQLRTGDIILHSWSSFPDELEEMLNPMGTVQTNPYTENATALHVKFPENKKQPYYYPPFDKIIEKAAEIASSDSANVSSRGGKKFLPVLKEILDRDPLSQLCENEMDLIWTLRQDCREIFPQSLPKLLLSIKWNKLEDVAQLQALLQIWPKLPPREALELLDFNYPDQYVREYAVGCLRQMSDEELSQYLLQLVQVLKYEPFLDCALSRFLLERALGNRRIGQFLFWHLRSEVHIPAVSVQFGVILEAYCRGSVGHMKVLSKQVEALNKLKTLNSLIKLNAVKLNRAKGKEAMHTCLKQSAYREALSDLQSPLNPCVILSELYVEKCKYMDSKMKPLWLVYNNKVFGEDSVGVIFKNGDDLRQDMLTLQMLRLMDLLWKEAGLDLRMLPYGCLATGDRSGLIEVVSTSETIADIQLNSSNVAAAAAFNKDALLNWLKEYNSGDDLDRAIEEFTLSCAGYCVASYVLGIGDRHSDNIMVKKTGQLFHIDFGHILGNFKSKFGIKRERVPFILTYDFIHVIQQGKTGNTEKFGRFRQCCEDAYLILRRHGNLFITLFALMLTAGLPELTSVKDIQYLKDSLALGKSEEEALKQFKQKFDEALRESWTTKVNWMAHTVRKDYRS
SMILES,IC50 [1] [nM],IC50 [2] [nM],IC50 [3] [nM],IC50 [4] [nM],IC50 [5] [nM],IC50 [6] [nM],IC50 [7] [nM],IC50 [8] [nM]
"CCn1c(=O)n(C)c2ncc(-c3ccc4ncc5c(c4c3)n(-c3cn(C)nc3C)c(=O)n5C)cc21 [Example 68, 1-(1,3-Dimethyl-1H-pyrazol-4-yl)-8-(1-ethyl-3-methyl-2-oxo-2,3-dihydro-1H-imidazo[4,5-b]pyridin-6-yl)-3-methyl-1,3-dihydro-imidazo[4,5-c]quinolin-2-one]",21,61,29,462,92,71,,
"Cc1ccc(-c2ccc3ncc4c(c3c2)n(-c2cc(C)nn2C)c(=O)n4C)cn1 [Example 7.1, 1-(2,5-Dimethyl-2H-pyrazol-3-yl)-3-methyl-8-(6-methyl-pyridin-3-yl)-1,3-dihydro-imidazo[4,5-c]quinolin-2-one]",46,404,68,105,,,,
"COc1nc2cc(-c3ccc4ncc5c(c4c3)n(-c3cn(C)nc3C)c(=O)n5C)cnc2n1C [Example 71, 1-(1,3-Dimethyl-1H-pyrazol-4-yl)-8-(2-methoxy-3-methyl-3H-imidazo[4,5-b]pyridin-6-yl)-3-methyl-1,3-dihydro-imidazo[4,5-c]quinolin-2-one]",,,262,564,110,377,37,13

# The next lines start with results.
IC50 [1] [nM],IC50 [2] [nM],IC50 [3] [nM],IC50 [4] [nM],IC50 [5] [nM],IC50 [6] [nM],IC50 [7] [nM],SMILES,IC50 [8] [nM]
14,21,7,3,,,,"CCn1cc(-n2c(=O)n(C)c3cnc4ccc(-c5cnc(CO)c(NC)c5)cc4c32)c(C)n1 [Example 158.5, 1-(1-Ethyl-3-methyl-1H-pyrazol-4-yl)-8-(6-hydroxymethyl-5-methylamino-pyridin-3-yl)-3-methyl-1,3-dihydro-imidazo[4,5-c]quinolin-2-one]",
10,23,< 3,15,25,25,9,"CNc1ncc(-c2ccc3ncc4c(c3c2)n(-c2cn(C)nc2C)c(=O)n4C)cc1COC [Example 248.3, 1-(1,3-Dimethyl-1H-pyrazol-4-yl)-8-(5-methoxymethyl-6-methylamino-pyridin-3-yl)-3-methyl-1,3-dihydro-imidazo[4,5-c]quinolin-2-one]",
8,22,3,15,,,,"CCn1cc(-n2c(=O)n(C)c3cnc4ccc(-c5cnc(NC)c(COC)c5)cc4c32)c(C)n1 [Example 248.2, 1-(1-Ethyl-3-methyl-1H-pyrazol-4-yl)-8-(5-methoxymethyl-6-methylamino-pyridin-3-yl)-3-methyl-1,3-dihydro-imidazo[4,5-c]quinolin-2-one]",
7,8,< 3,6,8,8,< 5,"CNc1ncc(-c2ccc3ncc4c(c3c2)n(-c2cn(C)nc2Cl)c(=O)n4C)cc1COC [Example 248.4, 1-(3-Chloro-1-methyl-1H-pyrazol-4-yl)-8-(5-methoxymethyl-6-methylaminopyridin-3-yl)-3-methyl-1,3-dihydro-imidazo[4,5-c]quinolin-2-one]",
32,144,14,565,,,,"CNc1ncc(-c2ccc3ncc4c(c3c2)n(-c2c(C)nn(C)c2C)c(=O)n4C)cc1COC [Example 248.5, 8-(5-Methoxymethyl-6-methylamino-pyridin-3-yl)-3-methyl-1-(1,3,5-trimethyl-1H-pyrazol-4-yl)-1,3-dihydro-imidazo[4,5-c]quinolin-2-one]",
